Results on two molecules are retold here after PMC11546786, “Designing Analogs of SAAP-148 with Enhanced Antimicrobial and Anti-LPS Activities” (International Journal of Molecular Sciences, 2024).

Ends that are not written are not given here.

The test system of data set [1] is Gram-positive bacteria (S. aureus, S. epidermidis). The data set is described as follows: Geometric mean of MICs against Gram-positive bacteria. The data set is classed as cell-based. Also noted: unit not given here. As for the experimental part:
(§1) The antibacterial activities of the peptides against […] were evaluated using a modified version of the Clinical Laboratory and Standards Institute (CLSI) broth microdilution method, as previously described. Briefly, the bacteria were cultured in liquid LB medium (comprising 10 g/L tryptone, 5 g/L yeast extract, and 10 g/L NaCl) at 37 °C until reaching mid-log phase. Subsequently, the bacterial concentration was adjusted to 1 × 10^6 colony-forming units (CFU)/mL. The peptides were then diluted serially with phosphate-buffered saline (PBS), followed by the addition of 50 μL of the diluted peptides to 50 μL of the bacterial suspension in a 96-well plate (Corning Inc., Lowell, MA, USA). After incubating at 37 °C for 18 to 20 h, the absorbance of each well was measured using a multi-well microplate reader (SpectraMax M5; Molecular Devices, Sunnyvale, CA, USA) at 600 nm.

In data set [2] the test system is Gram-negative bacteria (E. coli, P. aeruginosa, K. pneumoniae). The data set is described as follows: Geometric mean of MICs against Gram-negative bacteria. The data set is classed as cell-based. Also noted: unit not given here. As for the experimental part: as §1
A short description of data set [3]: CD spectra, secondary structure by BeStSel. Format: physicochemical. The conditions noted are these: 30 μM SDS as printed, 100 μM peptide, 25 °C. On the procedure:
CD spectra (Figure S1) were acquired using a JASCO J-1500 spectropolarimeter (JASCO Inc., Easton, MD, USA) in 0.1 cm pathlength cells under nitrogen at 25 °C. The spectra were recorded in the range of 190 to 250 nm at a peptide concentration of 100 μM in SDS. Secondary structure was determined using the BeStSel server. Hydropathicity, mean relative hydrophobic moment, and charge of peptides were predicted using the HeliQuest (https://heliquest.ipmc.cnrs.fr/ (accessed on 12 March 2024)). The 3D structure of SAAP-148 and its analogues (Figure S2) was predicted using PEP-FOLD4 servers (https://bioserv.rpbs.univ-paris-diderot.fr/services/PEP-FOLD4/ (accessed on 19 June 2024)).

The subject of a further data set is five bacterial strains. The data set is described as follows: MICs against all five bacterial strains (geometric mean, range). Format: cell-based. The conditions noted are these: geometric mean of MICs against all five bacterial strains. Also noted: unit not given here. As for the experimental part:
as §1

The subject of another data set is BEAS-2B cells. Description: Membrane damage, PI staining and flow cytometry. Format: cell-based. The conditions noted are these: 6.25 μM peptide, 1 × 10^6 cells, 37 °C, 30 min, flow cytometry. On the procedure:
(§2) Propidium iodide (PI) was utilized as a marker for assessing the structural integrity of cell membranes and the occurrence of cell death. The impact of peptides on BEAS-2B cells, E. coli, and S. aureus was investigated by treating the cells with peptides followed by PI staining and flow cytometry (FACS) analysis to evaluate peptide-induced membrane damage. Table 5 presents the results of PI staining in BEAS-2B cells (1 × 10^6) following treatment with peptides at a concentration of 6.25 μM. […] FACS analysis at a peptide concentration of 6.25 μM was employed to determine the membrane damage caused by peptides in E. coli and S. aureus cells (Table 5).
(§3) Peptide-induced membrane damage was evaluated by quantifying the influx of propidium iodide (PI). BEAS-2B cells (1 × 10^6 cells in 50 μL) were exposed to a final concentration of 6.25 μM peptide and incubated at 37 °C for 30 min, followed by PBS washing and re-suspension in PI solution (dissolved in PBS) at a final concentration of 2 μg/mL. Bacteria were cultured to mid-log phase at 37 °C, then diluted to an OD600 of 0.5 in phosphate-buffered saline (PBS). […] The bacteria were harvested and re-suspended in PI solution, with fluorescence signal analysis conducted using flow cytometry (Cytomics FC 500, Beckman Coulter, Indianapolis, IN, USA).

The next data set concerns S. aureus. Description: Membrane damage, PI staining and flow cytometry. Format: cell-based, Staphylococcus aureus. The conditions noted are these: 6.25 μM peptide, OD600 0.5 in PBS, 37 °C, 30 min, flow cytometry. As for the experimental part: as §2, §3
The next data set has as its system E. coli. The data set is described as follows: Membrane damage, PI staining and flow cytometry. The data set is classed as cell-based, Escherichia coli. The conditions noted are these: 6.25 μM peptide, OD600 0.5 in PBS, 37 °C, 30 min, flow cytometry. On the procedure:
as §2, §3

The nature of data set [4]: Reversed-phase HPLC retention time as measure of peptide hydrophobicity. The data set is classed as physicochemical. The following applies: retention time by reverse-phase HPLC, reflects hydrophobicity difference between analogues. The source says:
The physicochemical parameters crucial for the antimicrobial activity of AMPs have been identified, encompassing net charge, helicity, hydrophobicity, and amphipathicity. The hydropathicity, mean relative hydrophobic moment, and charge of peptides were predicted using the HeliQuest (https://heliquest.ipmc.cnrs.fr/ (accessed on 12 March 2024)). Lysine is a hydrophilic amino acid, and its substitution leads to a decrease in the hydrophobicity of the SAAP-148 analogue. The anticipated results are consistent, with the degree of reduction in […] varying depending on the position at which lysine is substituted (Table 2). The amphipathicity of the peptides, as denoted by the μH (mean relative hydrophobic moment), is elaborated on in Table 2. The hydrophobic moment of SAAP-148 analogues was decreased except for SAAP-10, which is on account of the substitution occurring on the18th residue. (Figure 1) The 18th residue of SAAP-148 is glutamine, a polar amino acid residue, located at the junction of the hydrophobic and hydrophilic surfaces of the SAAP-148 α-helix. […] The retention time data determined by reversed-phase high-performance liquid chromatography (RP-HPLC) reflects the hydrophobicity difference between peptide analogues. It is well documented that the formation of a hydrophobic-binding domain due to peptide secondary structure can affect peptide interactions with reversed-phase matrices. This effect was observed particularly for amphipathic α-helical peptides. Given this preferred binding domain, amphipathic α-helical peptides are considerably more retentive than non-amphipathic peptides with the same amino acid composition.
This phenomenon was particularly evident in the case of amphipathic α-helical peptides. […] This discrepancy may be attributed to the lack of a well-defined α-helical structure in SAAP-148 and its analogues (Figure S1).

Data set [5] relates to Klebsiella pneumonia (1.1736). The data set is classed as cell-based, Klebsiella pneumoniae.
From the text: (§4) The LL-37, SAAP-148 and its analogues peptides were synthesized according to the standard Fmoc procedure. The Fmoc-protected resin and monomers are first treated with a basic solvent (piperidine) to remove the amino protecting groups. The carboxyl group of the next amino acid is activated by an activator. The activated monomer reacts with the free amino group to form a peptide bond. These two steps are repeated in a cycle until the synthesis is complete. After synthesis, the peptide is eluted from the column and purified by reverse-phase semipreparative high-performance liquid chromatography as detailed in Table 1. The peptides were dissolved in PBS to create a 1000 μmol/L stock solution for subsequent use. The purity of the synthetic peptide exceeded 95%. Blood samples from healthy donors were obtained from the Fifth Medical Center of Chinese PLA General Hospital (Beijing, China). Human normal lung epithelial cells (BEAS-2B) and mouse mononuclear macrophages cells (RAW 264.7) were sourced from Beyotime Biotechnology (Beijing, China), along with the Enhanced Cell Counting Kit-8 (CCK-8) and nitric oxide detection kit. RPMI-1640 and DMEM were procured from Merck (Darmstadt, Germany), while FBS was obtained from ExCell Bio (Shanghai, China). LPS-B5 (from E. coli 055:B5) was procured from Invivogen (Toulouse, France). Five bacterial strains, including Escherichia coli (1.8732), Pseudomonas aeruginosa (1.2421), Klebsiella pneumonia (1.1736) as Gram-negative bacteria, and Staphylococcus aureus (1.8721) and Staphylococcus epidermidis (1.4260) as Gram-positive bacteria, were procured from the China General Microbiological Culture Collection Centre (CGMCC) (Beijing, China).
as §1

In data set [6] the test system is LPS-induced NO in RAW264.7 macrophages. The data set is described as follows: Inhibition of LPS-induced NO production, Griess assay. Format: cell-based, mouse. The following applies: 6.25 μM peptide, LPS 100 ng/mL, 24 h, Griess assay (Figure 4). The source says: LL-37 is a promising peptide for the regulation of inflammation and mitigation of endotoxin impact due to its ability to directly bind to LPS and counteract its biological effects, such as the inhibition of interleukin-6 (IL-6), interleukin 1β (IL-1β), and LPS-induced nitric oxide (NO). We conducted a series of experiments to assess the effectiveness of SAAP-148 and its analogues in reducing NO production by mouse mononuclear pacrophages cells (RAW264.7) after LPS stimulation. […] Subsequently, we employed a Griess assay to evaluate the levels of nitrite in RAW264.7 cells following treatment with SAAP-148 and its analogues, both with and without LPS treatment.
RAW264.7 cells were cultured in DMEM supplemented with 10% (v/v) FBS, 2 mM L-glutamine, 100 U/mL penicillin, and […] streptomycin, and maintained in a humidified incubator with 5% CO2 at 37 °C. Subsequently, RAW264.7 cells (1.5 × 10^4 cells/well) were seeded in 96-well plates (Corning Inc., Lowell, MA, USA) and incubated overnight. […] After incubation for 24 h, the culture supernatant was collected, and NO assay was performed according the instruction. The absorbance of the sample was measured at 550 nm.

The test system of data set [7] is human erythrocytes versus five bacterial strains. Description: Therapeutic index (MHC/GM of MIC). The following applies: ratio of MHC to geometric mean of MIC (five strains). As for the experimental part: The geometric mean of minimum inhibitory concentration (MIC) values (GM) from the five strains was calculated to provide a comprehensive assessment of antimicrobial activity, as presented in Table 4.
The therapeutic index (TI) is a widely utilized parameter for indicating the specificity of antimicrobial agents, which is determined by the ratio of MHC (hemolytic activity) and MIC (antimicrobial activity). Consequently, larger TI values signify greater antimicrobial specificity. The TI can be enhanced through one of three mechanisms: increasing antimicrobial activity, reducing hemolytic activity while maintaining antimicrobial activity, or a combination of both augmenting antimicrobial activity and diminishing hemolytic activity.

Data set [8] relates to Escherichia coli (1.8732). Format: cell-based.
From the text: as §4, §1

In data set [9] the test system is Staphylococcus aureus (1.8721). Format: cell-based.
From the text: as §4, §1

The subject of data set [10] is Staphylococcus epidermidis (1.4260). The data set is classed as cell-based.
From the text: as §4, §1

Data set [11] concerns Pseudomonas aeruginosa (1.2421). Format: cell-based.
From the text: as §4, §1

Consider `CC[C@H](C)[C@H](NC(=O)[C@H](CCCCN)NC(=O)[C@H](CCC(=O)O)NC(=O)[C@H](CCCCN)NC(=O)[C@H](CO)NC(=O)[C@H](CCCCN)NC(=O)[C@H](CCCNC(=N)N)NC(=O)[C@H](Cc1ccccc1)NC(=O)[C@H](Cc1ccccc1)NC(=O)[C@H](CC(=O)O)NC(=O)CNC(=O)[C@H](CC(C)C)NC(=O)[C@@H](N)CC(C)C)C(=O)NCC(=O)N[C@@H](CCCCN)C(=O)N[C@@H](CCC(=O)O)C(=O)N[C@@H](Cc1ccccc1)C(=O)N[C@@H](CCCCN)C(=O)N[C@@H](CCCNC(=N)N)C(=O)N[C@H](C(=O)N[C@H](C(=O)N[C@@H](CCC(N)=O)C(=O)N[C@@H](CCCNC(=N)N)C(=O)N[C@H](C(=O)N[C@@H](CCCCN)C(=O)N[C@@H](CC(=O)O)C(=O)N[C@@H](Cc1ccccc1)C(=O)N[C@@H](CC(C)C)C(=O)N[C@@H](CCCNC(=N)N)C(=O)N[C@@H](CC(N)=O)C(=O)N[C@@H](CC(C)C)C(=O)N[C@H](C(=O)N1CCC[C@H]1C(=O)N[C@@H](CCCNC(=N)N)C(=O)N[C@H](C(=O)N[C@@H](CCC(=O)O)C(=O)N[C@@H](CO)C(=O)O)[C@@H](C)O)C(C)C)[C@@H](C)CC)C(C)C)[C@@H](C)CC` [LL-37, reference compound], for which, in data set [1], the “GM to G+” value worked out at 100. For the same molecule, the “GM to G−” value in data set [2] came to 12.49. In [3], this molecule returned an Others of 0%, a Turn of 0%, a α-Helix of 100% and a β-Antiparallel of 0%. The molecule also had a β-Parallel in data set [3] of 0%. For the same molecule, the “MIC (GM)” value in the data set on five bacterial strains was 28.72. The “proportion of PI-positive cells, BEAS-2B” value with BEAS-2B cells is 31.2%. The “proportion of PI-positive cells, S. aureus” value in the data set with S. aureus amounted to 46.9%. For the same molecule, the “proportion of PI-positive cells, E. coli” value with E. coli was found to be 78.9%. The “Rt” value in data set [4] worked out at 11.125 min.
With LKRVWKRVFKLLKRYWRQLKKPVR-NH2 [SAAP-148], the “GM to G+” value in data set [1] is 12.51. Moreover, the “GM to G−” value in [2] is given as 4.96. Further, in data set [5], the “MIC K. pneumoniae” value turned out to be 6.25 µM. Also, in [3], the Others amounted to 0%, the Turn is on record as 0%, the α-Helix is listed as 93.5% and the β-Antiparallel amounted to 6.5%. For the same molecule, the β-Parallel in data set [3] is 0%. For the same molecule, the NO inhibition ability result in [6] is reported as “comparable efficacy to LL-37”. Besides, in the data set with five bacterial strains, the “MIC (GM)” value is 7.18. Moreover, the “TI (MHC/MIC)” value in [7] is 0.11. The “MIC E. coli” value in [8] was found to be 6.25 µM. The “MIC S. aureus” value in data set [9] worked out at 50.00 µM. Further, the “MIC S. epidermidis” value in data set [10] was 3.13 µM. Moreover, the “MIC P. aeruginosa” value in [11] turned out to be 3.13 µM. In [4], the “Rt” value was 12.416 min.
